Source: patent US11207343B2, “Compositions and therapeutic methods” (AyuVis Research LLC, priority 2016, dated 2021)

What was measured:
[1] = system: LPS induced cytokines (TNF-α, IL-1β and IL-6) in human monocytes; assay: Inhibition of LPS induced inflammatory mediators in human monocytes; format: cell-based; conditions: for inhibiting LPS induced inflammation biomarkers (TNF-α, IL-1β and IL-6) in human monocytes: concentration not given; for inhibition of LPS induced TNF-α production: 100 μM
Method: To understand the structural requirement and limitations to probe the TLR4 binding pocket for optimal potency and efficacy, we have studied the ability of chitooligomers to inhibit LPS induced inflammation in human monocytes (FIG-8 A-B). Compounds 1-4 inhibited LPS induced cytokines TNF-α, IL-1β and IL-6) in a statistically significant manner at 10 μM concentration. […] The protocol was followed as described [Panda etal, PLoS Pathog 2012, 8, e1002717]. Human monocytes were stimulated with LPS along with the series of compounds (10 μM) for 48 h. TNF-α, IL-1β, I1-6 in culture supernatants were quantified according to the manufacturer's instruction. Similarly, other analogs were assessed for their ability to inhibit LPS induced TNF-α production in human monocytes.

MRSA and MSSA strains = assay: Activity against MRSA and MSSA strains compared to colistin; format: cell-based, S. aureus; conditions: colistin as positive control
Source text: (§1) Further we studied their biofilm inhibition and eradication activities against biofilm cells as described previously [Ceri et al, Journal of Clinical Microbiology 1999, 37, 1771-1776]. […] Thus, these compounds with activities against S. aureus biofilms will have significant impact on controlling recalcitrant biofilm-mediated endovascular infections [Li et al, J Infect Dis. 2016 Nov. 1;214(9):1421-1429; Archer et al, Virulence 2011, 2, 445-459]. Briefly, we used Calgary Biofilm Device (CBD) technology for the biofilm susceptibilities to compounds. The CBD produces 96 equivalent biofilms for the assay of antibiotic susceptibilities by the standard 96-well technology. Susceptibility to a standard group of compounds and antibiotics was determined for National Committee for Clinical Laboratory Standards (NCCLS) as described previously.

[2] = system: gram negative (E. Coli, P. Aeruginosa, A, Baumannii, K. Pneumonia), gram positive (MRSA), fungus (C. Albicans); assay: MIC broth microdilution antimicrobial screen; format: cell-based
Source text: The compounds were screened against selected gram negative (E. Coli, P. Aeruginosa, A, Baumannii, K. Pneumonia), gram positive (MRSA) as well as fungus (C. Albicans) mostly found in burn and septic wounds. […] All prepared compounds have been evaluated in a Minimum Inhibitory Concentrations (MIC) assay with both test and control articles in accordance with guidelines of the Clinical Laboratory Standards Institute (CLSI) for broth microdilution susceptibility testing. Briefly, test and control compounds have been dissolved in DMSO, diluted to proper concentrations and added to 96-well microdilution trays. Brain Heart Infusion Broth (BHI) was used for studies with bacterial strains such as S. aureus, E. coli, P. Aeruginosa, K pneumoniae, A. baumannii and Candida albicans. Compounds were diluted serially from 200 μg/ml to 0.0625 μg/ml and plated in 96 well plates, and inoculated with approximately 1×10^5 CFU of each organism.

[3] = system: S. aureus biofilms (MRSA, MSSA); assay: Biofilm inhibition and eradication, Calgary Biofilm Device; format: cell-based
Source text: as §1

[4] = system: HMGB1 induced VEGF production in ARPE-19 cells; assay: HMGB1 induced VEGF production in ARPE-19 cells (ELISA); format: cell-based, human; conditions: 50 μg/mL, 100 ng/mL HMGB1, 24 h, p<0.01
Source text: Central to photoreceptor survival and function, the RPE is the major source of the angiogenic factor VEGF and therefore plays a central role in the modulation and progression of choroidal neovascularization [Spilsbury et al, The American Journal of Pathology 2000, 157, 135-144; Betts et al, ISRN Ophthalmology 2011, 2011, 184295] leading to AMD. As part of our preliminary result to evaluate if compounds 1 and 2 can inhibit the HMGB1 (an endogenous ligand for TLR4) induced VEGF production in ARPE-19 cells. […] 2×10^5 ARPE-19 cells were seeded in 24 well plate for 24 h in full medium containing 10% serum following which they were maintained for additional 24 h with serum free medium. Cells were treated with 0 μg/mL (medium) or 100 ng/mL of HMGB1 along with or without of 50 μg/mL of test compounds for 24 h. Supernatant was collected and assayed using human VEGF ELISA kit from Peprotech according to manufacturer's instructions. RPE cells are located adjacent to choroidal capillaries and other major ocular vasculatures.

[5] = system: laser-induced choroidal neovascularization; assay: Laser-induced CNV mouse model for wet AMD; format: in vivo, C57BL/6 mice
Source text: The parameters used to reproducibly obtain successful laser spots (as confirmed by a gas bubble formation indicating rupture of Bruch membrane) were: 350 mW, 75 msec, and 50 μm spot size. Four laser spots were applied; 2-3 disc diameters from the optic nerve. […] By the end of the experiment, mouse eyes were examined by fundus fluorescein angiography and/or optical coherence tomography (OCT) to visualize the CNV lesions. Afterwards animals were sacrificed and RPE/choroid/sclera flat mounts were prepared and stained with both FITC-conjugated isolectin B4 and anti-ICAM-2 antibody to quantitatively measure the size of CNV. We have performed two experiments to test the effects of 1, 2, 26 on laser-induced CNV.

[6] = system: LPS induced TNF-α in mouse bone marrow derived macrophages; assay: Inflammatory mediator (TNF-α) in mouse bone marrow derived macrophages; format: cell-based; conditions: for inhibition of LPS induced production of TNF-α: 100 μM, 8 hours, mouse bone marrow derived macrophages; for inhibiting LPS and HMGB1 induced inflammation biomarkers (TNF-α, IL-1β and IL-6): bone derived mouse macrophages
Method: Bone marrow derived mouse macrophages were treated with 100 μM of the above test compounds for 8 hours. Pro-inflammatory cytokines such as TNF-α protein level was measured by […]. LPS treatment (10 ng/ml) was used as positive control (FIG. 9).

E. coli (ATCC-25922) = assay: Lethal gram negative E. coli sepsis mouse model; format: in vivo; conditions: 250 μg/animal with 2×10^5 CFU E. coli intraperitoneally, BALB/c mice
Method: In an in vivo mice model, chitohexaose (Compound 1) protected mouse from lethal gram negative sepsis against E. coli. Previously reported bacterial sepsis model [Roger etal, Proc Natl Acad Sci USA. 2009 Feb 17;106(7):2348-52] was recruited to study the efficacy of Compound 1 (FIG-1). Intraperitoneally 2×10^5 CFU of E. coli (ATCC-25922) was injected into BALB/c mice with and without Compound 1 (250 μg/animal). E. coli mediated sepsis induced mortality whereas simultaneous treatment of mice with Compound 1 protected (40%) from sepsis induced death. The above result explained that bacteria induced sepsis and mortality is inhibited and delayed for a certain period of time which may provide a window for therapy.

Row | Compound | inhibiting LPS induced inflammation biomarkers (TNF-α, IL-1β and IL-6) in human monocytes [1] | activity against MRSA and MSSA strains compared to colistin (MRSA and MSSA strains) | inhibition of LPS induced TNF-α production ([1]; human monocytes) | HMGB1 induced VEGF production [4] | inhibition of LPS induced production of TNF-α [6] | inhibiting LPS and HMGB1 induced inflammation biomarkers (TNF-α, IL-1β and IL-6) [6] | other results
1 | CC1(C)CC(C(=O)NC2C(OC3C(CO)OC(O)C(N)C3O)OC(CO)C(OC3OC(CO)C(O)C(O)C3N)C2O)CC(C)(C)N1[O] (stereo not shown) [Compound 11] | unexpectedly superior activity |  |  |  |  |  | 
2 | CC(=O)NC1C(OC2C(CO)OC(Oc3ccc4c(C)cc(=O)oc4c3)C(NC(C)=O)C2O)OC(CO)C(O)C1O (stereo not shown) [Compound 12] |  | better activity | potent inhibitor |  |  |  | broad spectrum antimicrobial activity against gram negative, gram positive bacteria and fungus [2]: broad spectrum antimicrobial activity; inhibition of biofilm formation by MSSA and MRSA [3]: unexpectedly inhibited biofilm formation
3 | COCC1OC(Oc2ccc([N+](=O)[O-])cc2)C(NC(C)=O)C(O)C1O (stereo not shown) [Compound 16] |  |  | potent inhibitor |  |  |  | 
4 | chitohepatose [Compound 2] | unexpectedly potent activity |  |  | effectively reduced | Inhibits | unexpectedly potent activity | potency relative to chitohexaose (Compound 1), percentage of inhibition of LPS mediated induction of inflammatory cytokines ([1]; 10 μM, human monocytes): more potent than chitohexaose; average size of CNV lesions, relative to control mice treated with vehicle only ([5]; 200 μg daily i.p. injection): about 60%; decrease of choroidal neovascularization ([5]; as worded in heading of Example 16): ~60%
5 | chitohexaose [Compound 1] |  | better activity |  | effectively reduced | Inhibits |  | protection from sepsis induced death (E. coli (ATCC-25922)): 40%
6 | chitooctaose [Compound 3] | unexpectedly potent activity |  |  |  |  | unexpectedly potent activity | 
